Measured values as given in US11945779B2, “Inhibitors of cancer metastasis through inhibiting migration and invasion of cancer cells” (VSpharmtech, priority 2018, dated 2024).

Legend:
[1] = tested on: colon cancer cell line DLD-1; test: Real-time single cell migration imaging (HoloMonitor M4), DLD-1; type: cell-based, human; conditions: DLD-1, 24 hours, FIG. 7
Procedure: An effect of a drug on migration of single cells was confirmed using HoloMonitor M4 (Phase Holographic Imaging), real-time cell migration imaging and analysis equipment. All experiments were performed within a 37° C. cell incubator to analyze cell migration while cells were alive for a long time. To prevent water vapor generated during cell imaging for a long time from obstructing the imaging, the experiment was conducted by dividing cells in an m-slide microcopy chamber (Ibidi). In order to analyze migration of single cells, cells (2.5×10^5 cells/mL) to be analyzed were divided to the m-slide microscopy chamber by 0.2 mL and cultured for more than 12 hours. The cells were sufficiently attached to its original shape and then treated with the drug, and a position to be analyzed was specified, and then the cell migration was measured in real time.
The cell migration was measured for 24 hours at five-minute intervals, and migration of 25 cells per group was analyzed. Using the HoloMonitor tracking software, a total distance migrated by the cells during the time measured, a linear distance from the starting point to the arrival point, a rate of migration, and a direction were quantitatively analyzed, and the migration of single cells was visualized with a Wind-Rose plot (FIG. 7).

[2] = tested on: human melanoma cell line A375P; test: Lamellipodia formation inhibition (confocal microscope), A375P; type: cell-based; conditions: A375-p, 6 hours, FIG. 9
Procedure: (§1) A human colon cancer cell line DLD-1, a human pancreatic cancer cell line AsPc-1, a human melanoma cell line A375P, and normal cells MCF10A were each cultured to 1×10^5 cell density on a 35 mm high-m dish plate (ibid GmbH). The cells attached to the plate were washed with phosphate buffered saline (PBS) and then treated with DMSO or CG-618 dissolved in DMSO for 6 hours. After removing the cell culture medium from the plate, the plate was washed two times with PBS and treated with 4% paraformaldehyde dissolved in PBS at room temperature for 10 minutes to immobilize the cells. The plate was washed with PBS once and then treated with 0.2% Triton X-100 at room temperature for 10 minutes to enhance cell permeability. The plate was washed with PBS and treated with 1% BSA dissolved in PBS at room temperature for 1 hour to block non-specific bonds. In order to check the distribution in cells of filament actin (F-actin), phalloidin bound with Alexa Fluor 488, which was specifically bound with F-actin, was treated at room temperature for 15 minutes. The plate was washed with PBS three times and then treated with 2 mg/mL 4′,6′-diamidino-2-phenylindole (DAPAI) dissolved in PBS for two minutes at room temperature to dye the nucleus. The plate was washed with PBS three times and filled with 1 mL PBS. […] The obtained images were analyzed by an analysis program (LSM Version 3.2 software).

[3] = tested on: normal cells MCF10A; test: Lamellipodia formation (confocal microscope), MCF10A; type: cell-based; conditions: normal cell line MCF-10A, 6 hours, FIG. 9
Procedure: as §1

[4] = tested on: pancreatic cancer cells CFPAC-1; test: Trans-well cancer cell migration inhibition, CFPAC-1; type: cell-based; conditions: CFPAC-1, concentration not given, FIG. 3
Procedure: In order to analyze cancer cell migration inhibitory activity of CG-608, CG-609 or CG-618 prepared in Examples 1, 2, or 9, cell migration inhibitory activity was measured using a trans-well by targeting a colon cancer cell line DLD-1 (ATCC-CCL-221), pancreatic cancer cell lines AsPc-1 (ATCC-CCL-1682). CFPAC-1 (ATCC-CCL-1918). Panc-1 (ATCC-CCL-1469), and Miapaca-2 (ATCC-CCL-1420), a skin cancer cell line A375-P (ATCC-CCL-3224), lung cancer cell lines HCC-827 (ATCC-CCL-2868), A549 (ATCC-CCL-185), and NCI-H460 (ATCC-CCL-177), a prostate cancer cell line DU145 (ATCC-HTB-81), a stomach cancer cell line NuGC-3 (JCRB0822), and an ovarian cancer cell line SKOV-3 (ATCC-HTB-77).
First, the number of DLD-1 cells was measured using a hemocytometer in an RPMI medium without FBS. […] After culture, […] of crystal violet (5 mg/mL of 20% […] was added to each well of the 24-well plate and the trans-well was dyed at room temperature for 30 minutes. The dyed trans-well was washed with PBS and non-migrated cells were wiped off with cotton swabs. The prepared sample was photographed with an inverted microscope mounted with a digital camera (TE 300, Nikon. Japan) and then the number of migrated cells was counted. The degree of inhibiting cell migration was calculated by Equation 1 for a group treated with the sample compared to a control group (DMSO). […]

[5] = tested on: human-derived colon cancer cell line (HCT-116 luciferase); test: Colon cancer liver metastasis implant model in nude mouse (live animal imaging); type: in vivo; conditions: for Cancer metastasis inhibitory effect by whole image data: 20 times, five times a week
Description: In this experiment, a human-derived colon cancer cell line (HCT-116 luciferase) was implanted to the spleen and then the spleen was removed and sutured after four days. In a colon cancer liver metastasis implant model, cancer metastasis inhibitory activity by oral administration of CG-609 was verified using a live animal imaging system. As the animal, an Athymic-NCr NCr-nu SPF 5-week-old nude mouse supplied from Koatech (Pyeongtaek-si, Gyeonggi-do) was used. By adjusting a concentration of cancer cells to 2×10^6 cells/mL, the cell culture solution was injected directly into the spleen using a syringe (31 G needle, ½ cc) by 30 μL per mouse. The drug CG-609 was dissolved to a concentration of 5 mg/kg or 10 mg/kg using 0.5% Tween80 and then orally administered to the mouse in an amount of 10 mL/kg total 20 times on a schedule of five times a week.
HCT-116 luciferase cells were implanted, drug administration started from the day after the cancer cell was implanted, and the cells were imaged a total of seven times until the 25th day, the end of the experiment. During imaging, 50 μL of […] was intraperitoneally administered into each side of the animal's abdomen at a concentration of luciferin 15 mg/mL, and then photographed using an optical imaging system (IVIS-spectrum CT, PerkinElmer). On the final day of the test, the mouse was imaged and then […], and major organs (liver, kidney, and colon) were extracted to be imaged, and then the degree of image signal was measured. The values of all measurement items were tested for statistical significance by comparing a solvent control and a drug administration group using a t-TEST statistical method (FIGS. 10A and 10B).

CC1CCCCN1C(C)COc1ccccc1Cc1ccccc1 (racemic) [CG-618, 1-(1-(2-benzylphenoxy)propan-2-yl)-2-methylpiperidine]
Migration of single cancer cells (real-time imaging) [1]: strongly inhibited | Formation of lamellipodia [2]: inhibits formation of lamellipodia | Formation of lamellipodia [3]: has no effect

C[C@H](COc1ccccc1Cc1ccccc1)N1CCCC[C@@H]1C [CG-609, (S)-1-((R)-1-(2-benzylphenoxy)propan-2-yl)-2-methylpiperidine]
Inhibition of cell migration [4]: ≥ 50% | Colon metastasis inhibitory effect ([5]; 5 mg/kg oral): 76.9% | Liver metastasis inhibitory effect ([5]; 5 mg/kg oral): 47.7% | Renal metastasis inhibitory effect ([5]; 5 mg/kg oral): 72.4% | Cancer metastasis inhibitory effect by whole image data ([5]; 5 mg/kg oral): 77.9% | Inhibition of cancer metastasis in animal experiment ([5]; 5 mg/kg, 10 times lower dose than benproperine (50 mg/kg), FIGS. 10A and 10B): ≥ 50% | Colon metastasis inhibitory effect ([5]; 10 mg/kg oral): 85.6% | Liver metastasis inhibitory effect ([5]; 10 mg/kg oral): 58.6% | Renal metastasis inhibitory effect ([5]; 10 mg/kg oral): 76.1% | Cancer metastasis inhibitory effect by whole image data ([5]; 10 mg/kg oral): 80.1%
